Assay results as given in the supplement of paper PMC6315032.

What was measured:
Test in all cases: apparent dissociation constant (pKDapp, Kinobeads competition, Cheng-Prusoff corrected) (-log10 M); higher = tighter binding
BUB1 = BUB1 (UniProt O43683); conditions: affinity matrix / lysate: Kinobeads, mixed HEK293/K-562/placenta lysate
PRKD2 = PRKD2 (UniProt Q9BZL6); conditions: affinity matrix / lysate: Kinobeads, mixed HEK293/K-562/placenta lysate
DDR1 = DDR1 (UniProt Q08345); conditions: affinity matrix / lysate: Kinobeads, mixed HEK293/K-562/placenta lysate
MARK3 = MARK3 (UniProt P27448); conditions: affinity matrix / lysate: Kinobeads, mixed HEK293/K-562/placenta lysate
NEK7 = NEK7 (UniProt Q8TDX7); conditions: affinity matrix / lysate: Kinobeads, mixed HEK293/K-562/placenta lysate
PIK3R4 = PIK3R4 (UniProt Q99570); conditions: affinity matrix / lysate: Lipid Kinobeads, mixed HeLa/Jurkat/K-562 lysate
PDIK1L = PDIK1L (UniProt Q8N165); conditions: affinity matrix / lysate: Kinobeads, mixed HEK293/K-562/placenta lysate
TESK2 = TESK2 (UniProt Q96S53); conditions: affinity matrix / lysate: Kinobeads, mixed HEK293/K-562/placenta lysate
MAP2K3 = MAP2K3 (UniProt P46734); conditions: affinity matrix / lysate: Kinobeads, mixed HEK293/K-562/placenta lysate
PIK3C2A = PIK3C2A (UniProt O00443); conditions: affinity matrix / lysate: Lipid Kinobeads, mixed HeLa/Jurkat/K-562 lysate
MAPK7 = MAPK7 (UniProt Q13164); conditions: affinity matrix / lysate: Kinobeads, mixed HEK293/K-562/placenta lysate
MAP3K15 = MAP3K15 (UniProt Q6ZN16); conditions: affinity matrix / lysate: Kinobeads, mixed HEK293/K-562/placenta lysate
PRKD3 = PRKD3 (UniProt O94806); conditions: affinity matrix / lysate: Kinobeads, mixed HEK293/K-562/placenta lysate
CIT = CIT (UniProt O14578); conditions: affinity matrix / lysate: Kinobeads, mixed HEK293/K-562/placenta lysate
STK3 = STK3 (UniProt Q13188); conditions: affinity matrix / lysate: Kinobeads, mixed HEK293/K-562/placenta lysate
WEE1 = WEE1 (UniProt P30291); conditions: affinity matrix / lysate: Kinobeads, mixed HEK293/K-562/placenta lysate
PIP4K2A = PIP4K2A (UniProt P48426); conditions: affinity matrix / lysate: Kinobeads, mixed HEK293/K-562/placenta lysate
EIF2AK4 = EIF2AK4 (UniProt Q9P2K8); conditions: affinity matrix / lysate: Kinobeads, mixed HEK293/K-562/placenta lysate
PRKCD = PRKCD (UniProt Q05655); conditions: affinity matrix / lysate: Kinobeads, mixed HEK293/K-562/placenta lysate
ACVR1 = ACVR1 (UniProt Q04771); conditions: affinity matrix / lysate: Kinobeads, mixed HEK293/K-562/placenta lysate
STK4 = STK4 (UniProt Q13043); conditions: affinity matrix / lysate: Kinobeads, mixed HEK293/K-562/placenta lysate
NLK = NLK (UniProt Q9UBE8); conditions: affinity matrix / lysate: Kinobeads, mixed HEK293/K-562/placenta lysate
CDC7 = CDC7 (UniProt O00311); conditions: affinity matrix / lysate: Kinobeads, mixed HEK293/K-562/placenta lysate
MAPK1 = MAPK1 (UniProt P28482); conditions: affinity matrix / lysate: Kinobeads, mixed HEK293/K-562/placenta lysate
MAP2K5 = MAP2K5 (UniProt Q13163); conditions: affinity matrix / lysate: Kinobeads, mixed HEK293/K-562/placenta lysate
CAMKK2 = CAMKK2 (UniProt Q96RR4); conditions: affinity matrix / lysate: Kinobeads, mixed HEK293/K-562/placenta lysate
GSK3B = GSK3B (UniProt P49841); conditions: affinity matrix / lysate: Kinobeads, mixed HEK293/K-562/placenta lysate
LOC100128443 = conditions: affinity matrix / lysate: Kinobeads, mixed HEK293/K-562/placenta lysate
CDC2L5 = CDC2L5 (UniProt Q14004); conditions: affinity matrix / lysate: Kinobeads, mixed HEK293/K-562/placenta lysate
CSNK1A1 = CSNK1A1 (UniProt P48729); conditions: affinity matrix / lysate: Kinobeads, mixed HEK293/K-562/placenta lysate
MAP2K4 = MAP2K4 (UniProt P45985); conditions: affinity matrix / lysate: Kinobeads, mixed HEK293/K-562/placenta lysate
MET = MET (UniProt P08581); conditions: affinity matrix / lysate: Kinobeads, mixed HEK293/K-562/placenta lysate
EPHA4 = EPHA4 (UniProt P54764); conditions: affinity matrix / lysate: Kinobeads, mixed HEK293/K-562/placenta lysate

Measured: apparent dissociation constant (-log10 M)

Sequence of CIT (O14578 whole entry): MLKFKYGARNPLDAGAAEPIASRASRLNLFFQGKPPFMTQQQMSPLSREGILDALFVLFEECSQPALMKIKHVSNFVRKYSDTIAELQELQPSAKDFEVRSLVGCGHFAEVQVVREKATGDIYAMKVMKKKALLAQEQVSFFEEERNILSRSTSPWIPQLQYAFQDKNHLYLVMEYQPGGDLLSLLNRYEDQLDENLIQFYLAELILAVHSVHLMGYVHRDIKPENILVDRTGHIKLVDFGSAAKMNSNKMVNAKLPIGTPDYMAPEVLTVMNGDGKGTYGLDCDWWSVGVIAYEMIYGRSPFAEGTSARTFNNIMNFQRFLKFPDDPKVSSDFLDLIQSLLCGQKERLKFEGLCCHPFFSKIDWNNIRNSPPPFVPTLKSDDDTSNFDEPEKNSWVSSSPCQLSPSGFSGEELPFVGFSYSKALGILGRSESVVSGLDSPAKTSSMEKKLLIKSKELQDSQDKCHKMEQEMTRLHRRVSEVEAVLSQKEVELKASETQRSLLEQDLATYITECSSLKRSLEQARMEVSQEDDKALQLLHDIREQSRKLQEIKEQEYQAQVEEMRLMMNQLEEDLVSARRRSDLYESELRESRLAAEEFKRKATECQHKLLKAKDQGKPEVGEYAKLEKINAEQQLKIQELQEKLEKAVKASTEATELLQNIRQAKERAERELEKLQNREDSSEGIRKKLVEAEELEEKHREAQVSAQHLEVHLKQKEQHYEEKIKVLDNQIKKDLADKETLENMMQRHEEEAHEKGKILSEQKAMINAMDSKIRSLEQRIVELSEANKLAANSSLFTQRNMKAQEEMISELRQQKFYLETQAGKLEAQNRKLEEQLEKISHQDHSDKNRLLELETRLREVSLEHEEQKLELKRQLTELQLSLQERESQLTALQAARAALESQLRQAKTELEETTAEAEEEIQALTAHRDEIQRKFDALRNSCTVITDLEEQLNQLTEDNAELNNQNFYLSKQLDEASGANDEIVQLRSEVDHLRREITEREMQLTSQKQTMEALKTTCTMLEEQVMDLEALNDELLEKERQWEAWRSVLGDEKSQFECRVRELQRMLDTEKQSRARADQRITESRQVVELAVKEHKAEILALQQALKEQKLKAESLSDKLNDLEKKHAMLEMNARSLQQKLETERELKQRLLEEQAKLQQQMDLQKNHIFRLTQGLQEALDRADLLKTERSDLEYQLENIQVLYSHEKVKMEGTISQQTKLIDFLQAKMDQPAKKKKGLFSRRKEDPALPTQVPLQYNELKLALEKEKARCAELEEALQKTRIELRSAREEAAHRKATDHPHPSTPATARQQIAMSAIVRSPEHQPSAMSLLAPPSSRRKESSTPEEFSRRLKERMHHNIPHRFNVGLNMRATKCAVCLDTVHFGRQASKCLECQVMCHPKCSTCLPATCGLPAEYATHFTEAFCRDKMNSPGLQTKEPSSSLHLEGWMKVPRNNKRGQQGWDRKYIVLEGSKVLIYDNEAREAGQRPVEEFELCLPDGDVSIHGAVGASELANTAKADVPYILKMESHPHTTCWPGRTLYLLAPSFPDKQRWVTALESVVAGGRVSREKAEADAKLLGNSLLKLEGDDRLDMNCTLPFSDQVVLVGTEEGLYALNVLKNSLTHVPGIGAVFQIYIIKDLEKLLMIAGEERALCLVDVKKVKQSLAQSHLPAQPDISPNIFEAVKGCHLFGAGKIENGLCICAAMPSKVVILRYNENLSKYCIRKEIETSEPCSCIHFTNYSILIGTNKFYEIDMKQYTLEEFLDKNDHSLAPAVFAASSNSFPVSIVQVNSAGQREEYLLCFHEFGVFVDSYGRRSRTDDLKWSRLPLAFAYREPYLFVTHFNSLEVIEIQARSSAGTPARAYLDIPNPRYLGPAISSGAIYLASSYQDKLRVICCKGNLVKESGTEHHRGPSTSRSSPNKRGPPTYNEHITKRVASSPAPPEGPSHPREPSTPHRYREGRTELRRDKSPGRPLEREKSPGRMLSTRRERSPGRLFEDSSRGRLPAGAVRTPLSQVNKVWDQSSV
Sequence of PRKD2 (Q9BZL6 whole entry): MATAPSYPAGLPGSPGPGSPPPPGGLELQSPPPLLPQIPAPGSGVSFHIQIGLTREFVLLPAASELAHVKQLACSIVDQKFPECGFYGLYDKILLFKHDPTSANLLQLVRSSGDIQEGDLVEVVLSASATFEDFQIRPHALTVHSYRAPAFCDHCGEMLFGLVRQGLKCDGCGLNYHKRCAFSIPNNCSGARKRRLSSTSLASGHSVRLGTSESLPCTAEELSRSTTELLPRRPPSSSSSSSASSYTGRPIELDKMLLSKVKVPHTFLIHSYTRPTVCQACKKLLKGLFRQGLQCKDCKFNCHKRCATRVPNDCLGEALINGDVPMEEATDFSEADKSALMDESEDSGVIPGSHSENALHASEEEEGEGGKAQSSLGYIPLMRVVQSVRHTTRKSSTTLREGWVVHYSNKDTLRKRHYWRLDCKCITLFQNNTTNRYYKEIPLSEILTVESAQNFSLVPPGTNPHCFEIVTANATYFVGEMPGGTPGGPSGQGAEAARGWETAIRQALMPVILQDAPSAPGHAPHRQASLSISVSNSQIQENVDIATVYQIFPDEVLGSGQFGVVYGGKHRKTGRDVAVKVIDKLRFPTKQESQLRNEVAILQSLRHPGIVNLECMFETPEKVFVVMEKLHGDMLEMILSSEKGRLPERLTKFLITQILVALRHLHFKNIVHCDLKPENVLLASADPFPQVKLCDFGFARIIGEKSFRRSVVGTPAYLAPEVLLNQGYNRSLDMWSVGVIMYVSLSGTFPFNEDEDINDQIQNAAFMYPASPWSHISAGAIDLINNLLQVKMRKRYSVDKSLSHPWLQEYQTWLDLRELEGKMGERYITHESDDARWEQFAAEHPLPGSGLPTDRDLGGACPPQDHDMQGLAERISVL
Sequence of NEK7 (Q8TDX7 whole entry, looked up): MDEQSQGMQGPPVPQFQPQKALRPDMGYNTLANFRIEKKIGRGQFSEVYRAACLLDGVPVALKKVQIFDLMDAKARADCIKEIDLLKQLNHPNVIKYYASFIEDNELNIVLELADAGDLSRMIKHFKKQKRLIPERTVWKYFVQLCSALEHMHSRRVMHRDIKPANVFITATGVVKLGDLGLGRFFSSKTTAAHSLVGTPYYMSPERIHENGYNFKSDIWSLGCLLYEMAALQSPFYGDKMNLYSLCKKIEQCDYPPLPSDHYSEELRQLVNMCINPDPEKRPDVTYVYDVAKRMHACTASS
Sequence of EPHA4 (P54764 whole entry): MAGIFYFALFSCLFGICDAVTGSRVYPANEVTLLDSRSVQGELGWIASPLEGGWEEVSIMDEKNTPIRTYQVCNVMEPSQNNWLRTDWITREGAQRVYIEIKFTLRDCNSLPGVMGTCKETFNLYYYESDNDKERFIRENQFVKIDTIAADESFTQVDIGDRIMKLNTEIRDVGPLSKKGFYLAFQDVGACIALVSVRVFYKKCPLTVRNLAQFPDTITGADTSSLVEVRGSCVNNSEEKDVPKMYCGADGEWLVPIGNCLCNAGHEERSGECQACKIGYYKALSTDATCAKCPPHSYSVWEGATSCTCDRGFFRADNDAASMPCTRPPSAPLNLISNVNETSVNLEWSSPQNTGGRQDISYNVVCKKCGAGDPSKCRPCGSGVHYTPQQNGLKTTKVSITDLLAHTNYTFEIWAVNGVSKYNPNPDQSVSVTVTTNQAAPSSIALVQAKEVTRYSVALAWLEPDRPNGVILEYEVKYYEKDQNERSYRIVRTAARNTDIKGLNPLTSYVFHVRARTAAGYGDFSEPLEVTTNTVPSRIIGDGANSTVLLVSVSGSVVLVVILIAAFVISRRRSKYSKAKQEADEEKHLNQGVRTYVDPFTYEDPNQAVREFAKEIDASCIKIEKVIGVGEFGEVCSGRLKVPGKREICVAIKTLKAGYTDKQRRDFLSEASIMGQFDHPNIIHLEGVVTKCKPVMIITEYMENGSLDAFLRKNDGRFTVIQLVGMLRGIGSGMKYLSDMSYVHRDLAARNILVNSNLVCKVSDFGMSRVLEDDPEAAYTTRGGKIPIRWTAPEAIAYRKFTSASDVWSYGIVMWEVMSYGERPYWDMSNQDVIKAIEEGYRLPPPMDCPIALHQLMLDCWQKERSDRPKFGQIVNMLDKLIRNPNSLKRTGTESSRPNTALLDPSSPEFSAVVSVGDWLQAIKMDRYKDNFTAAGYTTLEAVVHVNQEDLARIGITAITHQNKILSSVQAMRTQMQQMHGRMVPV
Sequence of CSNK1A1 (P48729 whole entry, looked up): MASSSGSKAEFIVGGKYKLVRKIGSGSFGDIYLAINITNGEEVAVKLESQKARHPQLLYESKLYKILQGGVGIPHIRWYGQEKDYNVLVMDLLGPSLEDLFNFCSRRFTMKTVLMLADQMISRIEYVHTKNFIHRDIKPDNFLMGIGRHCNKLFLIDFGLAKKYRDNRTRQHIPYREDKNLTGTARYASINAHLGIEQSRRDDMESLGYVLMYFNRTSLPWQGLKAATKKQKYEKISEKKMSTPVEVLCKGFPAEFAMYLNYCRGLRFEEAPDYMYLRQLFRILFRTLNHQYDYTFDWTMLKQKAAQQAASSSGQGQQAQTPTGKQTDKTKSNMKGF
Sequence of NLK (Q9UBE8 whole entry): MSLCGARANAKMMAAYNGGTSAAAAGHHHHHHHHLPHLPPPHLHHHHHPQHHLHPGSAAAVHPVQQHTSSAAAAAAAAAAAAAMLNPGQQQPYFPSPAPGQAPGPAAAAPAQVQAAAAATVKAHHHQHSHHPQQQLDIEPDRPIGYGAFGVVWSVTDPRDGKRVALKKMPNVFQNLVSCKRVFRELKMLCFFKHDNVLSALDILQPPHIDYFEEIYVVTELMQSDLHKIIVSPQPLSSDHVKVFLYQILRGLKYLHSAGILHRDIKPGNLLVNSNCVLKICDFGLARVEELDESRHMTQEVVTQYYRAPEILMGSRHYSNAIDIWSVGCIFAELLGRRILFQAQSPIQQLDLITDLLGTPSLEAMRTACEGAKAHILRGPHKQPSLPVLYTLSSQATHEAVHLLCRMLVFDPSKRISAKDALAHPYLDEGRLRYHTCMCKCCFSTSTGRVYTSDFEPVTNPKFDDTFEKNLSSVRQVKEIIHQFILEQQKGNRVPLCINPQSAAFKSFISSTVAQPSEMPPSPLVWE

COc1ccc(-c2ccc3c(N4CCOC[C@@H]4C)nc(N4CCOC[C@@H]4C)nc3n2)cc1CO [AZD8055]
< 6: all assays above

CCNC(=O)Nc1ccc(-c2nc(N3CCOC[C@@H]3C)c3c(n2)C(C)(C)S(=O)(=O)C3)cc1 [CZ415]
< 6: all assays above
